Numbered stars: 1 amine (or outer) side, 2 acyl side, 3 side chain; on linkers, the order of the positions; unused ones are H or OH. Bridge positions count the residues as written; N and C are the ends. Square brackets hold non-standard residues; d marks the D form. Peptide text beside a SMILES is read from it. Trp(βS-Me,7-OMe) = COc1cccc2c([C@H](C)[C@H](N)C(=O)O)c[nH]c12; X21 = COc1cccc2c([C@H](C)[C@H](N[*:1])C(=O)[*:2])c(C)[nH]c12; Trp(7-CN) = N#Cc1cccc2c(C[C@H](N)C(=O)O)c[nH]c12; Trp(7-Cl) = N[C@@H](Cc1c[nH]c2c(Cl)cccc12)C(=O)O; Phe(4-CONH2) = NC(=O)c1ccc(C[C@H](N)C(=O)O)cc1; Phe(4-COOH) = N[C@@H](Cc1ccc(C(=O)O)cc1)C(=O)O; 4Pal(3S-Me) = C[C@@H](c1ccncc1)[C@H](N)C(=O)O; Trp(7-aza) = N[C@@H](Cc1c[nH]c2ncccc12)C(=O)O; Pip(5R-OH) = O=C(O)[C@@H]1CC[C@@H](O)CN1; X4 = O=C([C@H]1C=C[C@@H](N[*:1])C1)[*:2]; αMeW = C[C@](N)(Cc1c[nH]c2ccccc12)C(=O)O; X1 = O=C([C@@H]1CC[C@H](N[*:1])C1)[*:2]; X6 = O=C([C@@H](N[*:1])C1(O)CC1)[*:2]; Pip(4-aza) = O=C(O)[C@@H]1CNCCN1; hPhe = N[C@@H](CCc1ccccc1)C(=O)O; 4Pal = N[C@@H](Cc1ccncc1)C(=O)O; NMeE = CN[C@@H](CCC(=O)O)C(=O)O; dHyp = O=C(O)[C@H]1C[C@H](O)CN1; Cit = NC(=O)NCCC[C@H](N)C(=O)O; Ahp(2) = CCCCC[C@H](N)C(=O)O; αMeS = C[C@](N)(CO)C(=O)O; NMeA = CN[C@@H](C)C(=O)O; Nle = CCCC[C@H](N)C(=O)O; Sar = CNCC(=O)O
Assays:
[1] = target: T1, human TNFR1 extracellular domain (ECD) protein (Homo sapiens, UniProt P19438); test: SPR binding affinity to captured human TNFR1 ECD
T1 construct: HRV 3C protease cleavage site (C); 6His (C, cleaved yes); made in house; host or cells: Sf21 insect cells (baculovirus), secreted
T1 sequence (P19438 30-211): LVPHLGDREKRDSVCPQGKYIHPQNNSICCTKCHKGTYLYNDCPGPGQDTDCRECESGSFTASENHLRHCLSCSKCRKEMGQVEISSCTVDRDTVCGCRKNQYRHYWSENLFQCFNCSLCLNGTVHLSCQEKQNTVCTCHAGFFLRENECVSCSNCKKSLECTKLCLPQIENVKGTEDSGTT
Summary of the method: (§1)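 Read-out: kon, koff and derived affinity from SPR response units. Human TNFR1 and TNFR2 ECD, Avi-tag biotinylated with BirA, captured on a streptavidin surface; peptides injected under laminar flow in HEPES-saline with EDTA, P20 and 2% DMSO.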

human TNFR2 ECD protein = target: T2, human TNFR2 ECD protein (Homo sapiens, UniProt P20333); test: SPR off-target binding (selectivity) to human TNFR2 ECD
T2 construct: HRV 3C protease cleavage site (C); 6His (C, cleaved yes); made in house; host or cells: Sf21 insect cells (baculovirus), secreted
T2 sequence (P20333 23-257): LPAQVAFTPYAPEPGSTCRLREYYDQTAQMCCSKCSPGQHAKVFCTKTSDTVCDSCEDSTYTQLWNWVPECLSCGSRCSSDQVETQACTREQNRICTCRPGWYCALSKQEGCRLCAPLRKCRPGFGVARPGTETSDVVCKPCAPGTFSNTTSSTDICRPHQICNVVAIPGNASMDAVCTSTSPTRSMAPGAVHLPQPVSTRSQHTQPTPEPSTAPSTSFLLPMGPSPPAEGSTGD
Summary of the method: as §1

[2] = target: T3, TNFα-induced NF-κB signal transduction pathway (TNFR1 signaling) in THP-1 cells (Homo sapiens, UniProt P19438); test: THP-1 Lucia NF-κB reporter cell assay, inhibition of TNFα-induced NF-κB signaling; assay type: cell-based; conditions: THP-1 NF-κB Lucia reporter cells, 10 ng/mL TNFα, 16-18 h, secreted luciferase; read-out: THP-1 IC50
T3 sequence (P19438 30-455): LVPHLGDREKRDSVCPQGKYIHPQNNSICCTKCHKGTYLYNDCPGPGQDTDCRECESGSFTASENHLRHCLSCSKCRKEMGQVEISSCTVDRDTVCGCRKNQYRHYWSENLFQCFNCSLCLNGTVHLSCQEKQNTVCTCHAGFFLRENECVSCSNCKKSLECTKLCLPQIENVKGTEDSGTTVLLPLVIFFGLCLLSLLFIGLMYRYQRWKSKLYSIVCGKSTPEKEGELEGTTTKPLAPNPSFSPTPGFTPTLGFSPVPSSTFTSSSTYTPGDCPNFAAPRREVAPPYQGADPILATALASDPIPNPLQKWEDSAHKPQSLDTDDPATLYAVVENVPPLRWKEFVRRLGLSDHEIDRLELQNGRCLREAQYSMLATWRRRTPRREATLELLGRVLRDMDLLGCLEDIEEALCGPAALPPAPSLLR
Summary of the method: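 THP-1 Lucia NF-κB cells, 20k/well, no selection antibiotics; peptide pre-inc 1 h 37 °C; + recombinant human TNFα 10 ng/mL final; o.n.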

SMILES	Kd [1] [nM]	Kd (human TNFR2 ECD protein) [nM]	IC50 [2] [nM]
CCCC[C@@H]1NC(=O)[C@@H]2CC[C@@H](C2)NC(=O)[C@H]([C@@H](C)c2c[nH]c3c(OC)cccc23)NC(=O)CN(C)C(=O)[C@H](Cc2ccc(O)cc2)NC(=O)[C@H](Cc2ccc(C(=O)O)cc2)NC(=O)[C@](C)(CO)NC(=O)[C@H](Cc2c[nH]c3c(Cl)cccc23)NC(=O)[C@H](Cc2ccc(C(=O)O)cc2)NC(=O)[C@H](CC(N)=O)NC(=O)[C@H](CCC(=O)O)N(C)C(=O)[C@H](Cc2c[nH]c3ccccc23)NC(=O)[C@@H]2CNCCN2C(=O)[C@H](Cc2ccncc2)NC1=O [SEQ ID NO. 288] (cyclo([4Pal][Pip(4-aza)]W[NMeE]N[Phe(4-COOH)][Trp(7-Cl)][αMeS][Phe(4-COOH)]Y[Sar][Trp(βS-Me,7-OMe)][X1][Nle]))	0.1	> 1000	4.2
C[C@H]1C(=O)N[C@@H](CC(N)=O)C(=O)N[C@@H](Cc2ccncc2)C(=O)N[C@@H](Cc2c[nH]c3ccccc23)C(=O)N[C@@](C)(CO)C(=O)N[C@@H](Cc2ccc(C(=O)O)cc2)C(=O)N[C@@H](Cc2ccc(O)cc2)C(=O)N(C)CC(=O)N[C@@H](Cc2c[nH]c3ccccc23)C(=O)N[C@@H]2C=C[C@@H](C2)C(=O)N[C@@H](CCc2ccccc2)C(=O)N[C@@H](Cc2ccncc2)C(=O)N[C@@H](CO)C(=O)N[C@@H](Cc2c[nH]c3ccccc23)C(=O)N1C [SEQ ID NO. 248] (cyclo([4Pal]SW[NMeA]N[4Pal]W[αMeS][Phe(4-COOH)]Y[Sar]W[X4][hPhe]))	2	> 1000	10.6
CCCC[C@@H]1NC(=O)CSC[C@@H](C(N)=O)NC(=O)[C@](C)(Cc2c[nH]c3ccccc23)NC(=O)CN(C)C(=O)[C@H](Cc2ccc(O)cc2)NC(=O)[C@H](Cc2ccc(C(=O)O)cc2)NC(=O)[C@](C)(CO)NC(=O)[C@H](Cc2c[nH]c3c(Cl)cccc23)NC(=O)[C@H](Cc2ccncc2)NC(=O)[C@H](CC(N)=O)NC(=O)[C@H](CCC(=O)O)N(C)C(=O)[C@H](Cc2c[nH]c3ncccc23)NC(=O)[C@H](C2(O)CC2)NC(=O)[C@H](Cc2ccncc2)NC1=O [SEQ ID NO. 281] ({CH2CO}-[Nle][4Pal][X6][Trp(7-aza)][NMeE]N[4Pal][Trp(7-Cl)][αMeS][Phe(4-COOH)]Y[Sar][αMeW]C-NH2; thioether N-14)	0.5	> 1000	8.4
CCCC[C@@H]1NC(=O)[C@@H]2CC[C@@H](C2)NC(=O)[C@H]([C@@H](C)c2c(C)[nH]c3c(OC)cccc23)NC(=O)CN(C)C(=O)[C@H](Cc2ccc(C(=O)O)cc2)NC(=O)[C@H](Cc2ccc(C(N)=O)cc2)NC(=O)[C@](C)(CO)NC(=O)[C@H](Cc2c[nH]c3c(Cl)cccc23)NC(=O)[C@H](Cc2ccc(C(=O)O)cc2)NC(=O)[C@H](CC(N)=O)NC(=O)[C@H]2C[C@H](O)CN2C(=O)[C@H](Cc2c[nH]c3ccccc23)NC(=O)[C@@H]2CC[C@@H](O)CN2C(=O)[C@H](Cc2ccncc2)NC1=O [SEQ ID NO. 106] (cyclo([4Pal][Pip(5R-OH)]W[dHyp]N[Phe(4-COOH)][Trp(7-Cl)][αMeS][Phe(4-CONH2)][Phe(4-COOH)][Sar][X21][X1][Nle]))	0.04	> 1000	0.6
CCCCC[C@@H]1NC(=O)[C@@H]2CC[C@@H](C2)NC(=O)[C@H]([C@@H](C)c2c[nH]c3c(OC)cccc23)NC(=O)CN(C)C(=O)[C@H](Cc2ccc(C(N)=O)cc2)NC(=O)[C@H](Cc2ccc(C(N)=O)cc2)NC(=O)[C@](C)(CO)NC(=O)[C@H](Cc2c[nH]c3c(C#N)cccc23)NC(=O)[C@H](Cc2ccc(C(=O)O)cc2)NC(=O)[C@H](CC(N)=O)NC(=O)[C@H]2C[C@H](O)CN2C(=O)[C@H](Cc2c[nH]c3ccccc23)NC(=O)[C@H](CCCNC(N)=O)NC(=O)[C@H]([C@@H](C)c2ccncc2)NC1=O [SEQ ID NO. 110] (cyclo([Ahp(2)][4Pal(3S-Me)][Cit]W[dHyp]N[Phe(4-COOH)][Trp(7-CN)][αMeS][Phe(4-CONH2)][Phe(4-CONH2)][Sar][Trp(βS-Me,7-OMe)][X1]))	0.14	–	1.2
